The target in test [1] is human catalytic domain HDAC4 protein (Homo sapiens, UniProt P56524, A743G/DEL730-739/DEL742-742). Put plainly: Inhibition of HDAC4 catalytic domain enzymatic activity, Boc-Lys(Tfa)-AMC substrate, fluorescence.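 Also: trypsin releases AMC from deacetylated substrate, fluorescence tracks enzyme activity, 15 min reaction at 37 °C, 100% activity defined by DMSO-only control.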 As to conditions: Class IIa selective substrate Boc-Lys(Tfa)-AMC, read-out: Biochemical HDAC-4 IC50.
Test [2] concerns cellular histone deacetylase enzymatic activity in Jurkat E6-1 cells. The test can be described thus: Inhibition of cellular HDAC activity, Boc-Lys(Tfa)-AMC substrate, in Jurkat E6-1 cells. It counts as cell-based. As to conditions: Homo sapiens, Class IIa selective substrate Boc-Lys(Tfa)-AMC. From the text: The potency of Class IIa Histone Deacetylase (HDAC) inhibitors is quantified by measuring the cellular histone deacetylase enzymatic activity using the Class IIa selective substrate, Boc-Lys(Tfa)-AMC. After penetration in Jurkat E6-1 cells, the substrate is deacetylated to Boc-Lys-AMC. After cell lysis and cleavage by trypsin, the fluorophore AMC is released from the deacetylated substrate only. The fluoresence of the sample is directly related to the histone deacetylase activity in the sample.
Jurkat E6.1 Cell Culture and Plating.
Jurkat E6.1 cells are cultured according to standard cell culture protocols in Jurkat E6.1 Growth Media (RPMI without phenol red, 10% FBS, 10 mM HEPES, and 1 mM Sodium Pyruvate). Jurkat E6.1 cells are counted using a Coulter Counter and resuspended in Jurkat E6.1 growth media at a concentration of 75,000 cells/35 μl. 35 μl or 75,000 cells is seeded into Greiner microtitre assay plates. The plates are then incubated at 37° C. and 5% CO2 while other assay components are being prepared.
Serially Dilute HDAC Inhibitor Compounds.
Serial dilutions of the HDAC inhibitors and control reference compound (1-(5-(3-((4-(1,3,4-oxadiazol-2-yl)phenoxy)methyl)-1,2,4-oxadiazol-5-yl)thiophen-2-yl)-2,2,2-trifluoroethanone) are made by first resuspending the lyophilized compound to a final concentration of 10 mM in 100% DMSO. Stocks of 70 μl aliquots of the 10 mM compound in DMSO are prepared and stored at −20° C. From one stock aliquot of each compound to be tested and the reference compound, a 16-point serial dilution is prepared according to Table 7 using a 125 μl 16-channel Matrix multi-channel pipette.
2 μl (200×) of each diluted solution and each control (full activity: 100% DMSO alone or full inhibition 1 mM) is stamped into V-bottom polypropylene 384-well compound plates using either the Bravo, Janus, or […] 16-channel Matrix multi-channel pipette. Each well with the 200× compound solution is diluted 1:20 by the addition of 38 μl Jurkat assay buffer+DMSO (9.5% DMSO, RPMI without phenol red, 0.09% FBS, 9 mM Hepes, and 0.9 mM Sodium Pyruvate equilibrated to room temperature)
Prepare 5× (500 μM) Boc-Lys(Tfa)-AMC Substrate.
5× (500 μM) substrate is prepared just prior to the addition to the assay. The 5× substrate is prepared by diluting a 100 mM Boc-Lys(Tfa)-AMC in DMSO solution 1:200 by adding it drop-wise to Jurkat assay medium (RPMI without phenol red, 0.1% FBS, 10 mM Hepes, and 1 mM Sodium Pyruvate equilibrated to 37° C.) while vortexing at slow speed to prevent precipitation.
10 ml of 3× lysis buffer is prepared with 8.8 ml of 3× stock lysis buffer (50 mM Tris-HCl, pH 8.0, 137 mM NaCl, 2.7 mM KCl, 1 mM MgCl2, 1% Nonidet P40 Substitute equilibrated to room temperature) and 1.2 ml of 3 mg/ml Trypsin equilibrated to room temperature.
5 μl of each solution of 1:20 diluted compound from above is transferred to the Greiner microtitre assay plates with 75,000 cells/well using the Bravo. Cells are then incubated for 2 hours at 37° C. and 5% CO2. The assay is then started by adding 10 μl of 5× (500 μM) substrate to the assay plate using either the Bravo or 16-channel Matrix multi-channel pipette. The cells are then incubated for 3 hours at 37° C. and 5% CO2. Next, 25 μl of 3× lysis buffer is added to each well using either the 125 μl 16 channel pipette or the Bravo. The assay plate is then incubated overnight (15-16 hours) at 37° C. and 5% CO2. The following day, the plates are shaken on an orbital shaker for 1 minute at 900 rpm. Finally the top read fluorescence (Excitation: 355 nm, Emission: 460 nm) is measured using PerkinElmer EnVision.

With `CN1CCOc2cc(-c3ccc([C@H]4[C@H](C(=O)NO)[C@@H]4c4ccccc4)cc3)ccc21` [Compound 54c, (1R,2R,3R)—N-hydroxy-2-(4-(4-methyl-3,4-dihydro-2H-benzo[b][1,4]oxazin-7-yl)phenyl)-3-phenylcyclopropanecarboxamide], the values for the IC50 in test [1] and in test [2] were 0.26 µM and 1.43 µM, respectively.
Turning to `O=C(NO)[C@@H]1[C@H](c2ccccc2)[C@H]1c1cccc(N2CCCn3nccc32)c1` [Compound 56h, (1R,2R,3R)-2-(3-(6,7-Dihydropyrazolo[1,5-a]pyrimidin-4(5H)-yl)phenyl)-N-hydroxy-3-phenylcyclopropanecarboxamide], the results for the IC50 in test [1] and in test [2] were 0.17 µM and 0.77 µM, respectively.
The corresponding values for `O=C(NO)[C@@H]1[C@H](c2ccccc2)[C@H]1c1ccc(C2=CCN(Cc3ccccc3)CC2)cc1` [Compound 71, (1R,2R,3R)-2-(4-(1-Benzyl-1,2,3,6-tetrahydropyridin-4-yl)phenyl)-N-hydroxy-3-phenylcyclopropanecarboxamide] are 0.35 µM and 0.75 µM.
For the compound `Cc1ncc(-c2ccc([C@H]3[C@H](C(=O)NO)[C@@H]3c3ccccc3F)cc2)o1` [Compound 75b, (1S,2R,3R)-2-(2-Fluorophenyl)-N-hydroxy-3-(4-(2-methyloxazol-5-yl)phenyl)cyclopropanecarboxamide], the IC50 in test [1] came out at 0.05 µM; in test [2] it was 0.47 µM.
The corresponding values for `Cc1cnc(-c2cccc([C@H]3[C@H](C(=O)NO)[C@@H]3c3ccccc3)c2)nc1` [Compound 77, (1R,2R,3R)—N-Hydroxy-2-(3-(5-methylpyrimidin-2-yl)phenyl)-3-phenylcyclopropanecarboxamide] are 0.16 µM and 0.78 µM.
In the case of `Cc1ccn(-c2ccc([C@H]3[C@H](C(=O)NO)[C@@H]3c3ccccc3)cc2)n1` [Compound 79, (1R,2R,3R)—N-Hydroxy-2-(4-(3-methyl-1H-pyrazol-1-yl)phenyl)-3-phenylcyclopropanecarboxamide], the IC50 amounted to 0.09 µM in test [1] and 0.65 µM in test [2].
`CC(C)N1CCN(c2ccc([C@H]3[C@H](C(=O)NO)[C@@H]3c3ccccc3F)cn2)CC1` [Compound 83, (1S,2R,3R)-2-(2-Fluorophenyl)-N-hydroxy-3-(6-(4-isopropylpiperazin-1-yl)pyridin-3-yl)cyclopropanecarboxamide]: the IC50 in test [1] was 0.12 µM; in test [2], 0.75 µM.
Turning to `O=C(NO)[C@H]1[C@H](c2cc(C3CC3)nc(C3CC3)c2)[C@H]1c1ccccc1F` [Compound 88, (1S,2R,3R)-2-(2,6-Dicyclopropylpyridin-4-yl)-3-(2-fluorophenyl)-N-hydroxycyclopropanecarboxamide], the half-maximal inhibitory concentration (IC50) in test [1] was found to be 0.2 µM; in test [2], 1.48 µM.
For the compound `O=C(NO)[C@@H]1[C@H](c2ccccc2)[C@H]1c1cnn(-c2ccc(C(F)(F)F)cn2)c1` [Compound 92b, (1R,2R,3R)—N-Hydroxy-2-phenyl-3-(1-(5-(trifluoromethyl)pyridin-2-yl)-1H-pyrazol-4-yl)cyclopropanecarboxamide], the IC50 in test [1] worked out at 0.18 µM; in test [2], 1.17 µM.
The corresponding values for `O=C(NO)[C@@H]1[C@H](c2cccc(F)c2)[C@H]1c1ccnc(C2CC2)c1` [Compound 100b, (1S,2R,3R)-2-(2-Cyclopropylpyridin-4-yl)-3-(3-fluorophenyl)-N-hydroxycyclopropanecarboxamide] are 0.02 µM and 0.42 µM.
In the case of `Cc1cnc(-c2ccc([C@H]3[C@H](C(=O)NO)[C@@H]3c3ccccc3)cc2)s1` [Compound 102, (1R,2R,3R)—N-hydroxy-2-(4-(5-methylthiazol-2-yl)phenyl)-3-phenylcyclopropanecarboxamide], the IC50 in test [1] was found to be 0.04 µM; in test [2], 0.44 µM.
The corresponding values for `O=C(NO)[C@H]1[C@H](c2ccc(NCC(F)(F)F)nc2)[C@H]1c1ccccc1F` [Compound 106, (1S,2R,3R)-2-(2-Fluorophenyl)-N-hydroxy-3-(6-((2,2,2-trifluoroethyl)amino)pyridin-3-yl)cyclopropanecarboxamide] are 0.17 µM and 1.41 µM.
The corresponding values for `O=C(NO)[C@@H]1[C@H](c2ccccc2)[C@H]1c1ccn2cc(C(F)(F)F)nc2c1` [Compound 109, (1R,2R,3R)—N-Hydroxy-2-phenyl-3-(2-(trifluoromethyl)imidazo[1,2-a]pyridin-7-yl)cyclopropanecarboxamide] are 0.23 µM and 2.5 µM.
The corresponding values for `O=C(NO)[C@@H]1[C@H](c2ccccc2)[C@H]1c1cnc2ccccn12` [Compound 115, (1R,2R,3R)—N-hydroxy-2-(imidazo[1,2-a]pyridin-3-yl)-3-phenylcyclopropanecarboxamide] are 0.55 µM and 6.66 µM.

As usually defined, the IC50 is the concentration at which inhibition is half-maximal.

The values above are taken from patent US9765054B2, “Histone deacetylase inhibitors and compositions and methods of use thereof” (CHDI Foundation, Inc., priority 2011, dated 2017).
